Laboratory results taken from ChEMBL document CHEMBL2177000, “Pharmacokinetic optimization of class-selective histone deacetylase inhibitors and identification of associated candidate predictive biomarkers of hepatocellular carcinoma tumor response” (J Med Chem, 2012).

Columns and labels:
[1] = target: T1, Histone deacetylase 11 (Homo sapiens, UniProt Q96DB2); test: Inhibition of HDAC11 using p53 (379 to 382 residues) based fluorogenic peptide substrate
T1 sequence (Q96DB2 whole entry): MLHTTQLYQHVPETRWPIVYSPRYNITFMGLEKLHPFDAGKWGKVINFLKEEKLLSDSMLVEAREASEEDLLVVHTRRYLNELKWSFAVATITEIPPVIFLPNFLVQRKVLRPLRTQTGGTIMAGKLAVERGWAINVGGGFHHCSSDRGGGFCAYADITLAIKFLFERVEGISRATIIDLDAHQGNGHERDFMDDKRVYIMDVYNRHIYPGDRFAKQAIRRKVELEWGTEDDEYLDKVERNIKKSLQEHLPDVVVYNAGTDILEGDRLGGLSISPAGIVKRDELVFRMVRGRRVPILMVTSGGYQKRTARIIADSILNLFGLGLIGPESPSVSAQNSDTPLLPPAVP

[2] = target: T2, Histone deacetylase 8 (Homo sapiens, UniProt Q9BY41); test: Inhibition of HDAC8 using p53 (379 to 382 residues) based fluorogenic peptide substrate
T2 sequence (Q9BY41 whole entry): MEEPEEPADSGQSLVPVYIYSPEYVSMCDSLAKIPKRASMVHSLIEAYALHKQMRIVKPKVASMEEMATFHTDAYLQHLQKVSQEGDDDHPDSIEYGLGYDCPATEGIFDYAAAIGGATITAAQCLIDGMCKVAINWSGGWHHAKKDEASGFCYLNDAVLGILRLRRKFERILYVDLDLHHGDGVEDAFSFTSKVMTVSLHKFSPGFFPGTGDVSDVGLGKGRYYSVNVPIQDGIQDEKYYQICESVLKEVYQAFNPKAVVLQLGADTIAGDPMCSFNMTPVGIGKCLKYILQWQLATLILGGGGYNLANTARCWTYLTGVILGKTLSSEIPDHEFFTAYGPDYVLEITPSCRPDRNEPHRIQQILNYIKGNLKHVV

[3] = target: Histone deacetylase 2 (Homo sapiens, UniProt Q92769); test: Inhibition of HDAC2 using p53 (379 to 382 residues) based fluorogenic peptide substrate
Chain of Histone deacetylase 2 (Q92769 whole entry, the tested form may be a part): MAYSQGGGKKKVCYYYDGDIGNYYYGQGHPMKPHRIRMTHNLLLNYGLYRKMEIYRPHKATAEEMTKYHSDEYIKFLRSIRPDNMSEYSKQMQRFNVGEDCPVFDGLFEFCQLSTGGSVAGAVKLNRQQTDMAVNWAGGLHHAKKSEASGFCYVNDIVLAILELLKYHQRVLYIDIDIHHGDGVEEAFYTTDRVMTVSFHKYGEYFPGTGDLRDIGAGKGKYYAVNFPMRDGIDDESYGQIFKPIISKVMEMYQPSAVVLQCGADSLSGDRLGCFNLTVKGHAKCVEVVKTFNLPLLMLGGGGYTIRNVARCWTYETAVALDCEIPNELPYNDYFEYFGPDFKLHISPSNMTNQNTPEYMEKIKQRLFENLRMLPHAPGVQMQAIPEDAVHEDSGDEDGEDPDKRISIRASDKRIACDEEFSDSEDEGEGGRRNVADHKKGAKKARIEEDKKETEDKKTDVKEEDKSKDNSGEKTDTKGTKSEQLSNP

[4] = target: Cytochrome P450 2C9 (Homo sapiens, UniProt P11712); test: Inhibition of CYP2C9 in human liver microsomes in presence of NADPH by LC-MS/MS method; assay type: ADME, Microsome
Chain of Cytochrome P450 2C9 (P11712 whole entry, the tested form may be a part): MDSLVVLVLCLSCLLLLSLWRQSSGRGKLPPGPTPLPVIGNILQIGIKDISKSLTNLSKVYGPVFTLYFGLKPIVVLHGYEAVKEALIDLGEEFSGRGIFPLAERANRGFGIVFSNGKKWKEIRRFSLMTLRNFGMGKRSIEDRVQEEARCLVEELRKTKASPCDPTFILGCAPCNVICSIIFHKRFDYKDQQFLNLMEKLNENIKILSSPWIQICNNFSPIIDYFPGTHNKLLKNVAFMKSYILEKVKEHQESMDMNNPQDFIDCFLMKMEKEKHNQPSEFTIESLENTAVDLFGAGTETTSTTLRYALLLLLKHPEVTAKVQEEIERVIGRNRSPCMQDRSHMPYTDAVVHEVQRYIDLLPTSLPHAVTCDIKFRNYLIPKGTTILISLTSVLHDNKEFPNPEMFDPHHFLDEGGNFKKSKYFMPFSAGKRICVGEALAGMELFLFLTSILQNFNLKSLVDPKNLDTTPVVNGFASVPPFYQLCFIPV

[5] = target: Histone deacetylase 3 (Homo sapiens, UniProt O15379); test: Inhibition of HDAC3 using p53 (379 to 382 residues) based fluorogenic peptide substrate
Chain of Histone deacetylase 3 (O15379 whole entry, the tested form may be a part): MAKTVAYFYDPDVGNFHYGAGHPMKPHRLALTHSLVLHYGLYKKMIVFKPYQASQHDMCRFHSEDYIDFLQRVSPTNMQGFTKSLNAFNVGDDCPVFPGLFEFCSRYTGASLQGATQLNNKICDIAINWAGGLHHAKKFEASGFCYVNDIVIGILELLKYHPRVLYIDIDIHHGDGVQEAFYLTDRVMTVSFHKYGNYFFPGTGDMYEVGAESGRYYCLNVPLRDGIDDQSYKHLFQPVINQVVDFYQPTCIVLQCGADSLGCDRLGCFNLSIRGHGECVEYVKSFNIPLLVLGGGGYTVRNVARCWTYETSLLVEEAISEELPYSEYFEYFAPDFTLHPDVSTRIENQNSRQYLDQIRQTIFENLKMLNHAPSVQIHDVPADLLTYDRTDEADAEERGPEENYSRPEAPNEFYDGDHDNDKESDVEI

[6] = target: T3, Histone deacetylase 7 (Homo sapiens, UniProt Q8WUI4); test: Inhibition of HDAC7 using p53 (379 to 382 residues) based fluorogenic peptide substrate
T3 sequence (Q8WUI4 whole entry): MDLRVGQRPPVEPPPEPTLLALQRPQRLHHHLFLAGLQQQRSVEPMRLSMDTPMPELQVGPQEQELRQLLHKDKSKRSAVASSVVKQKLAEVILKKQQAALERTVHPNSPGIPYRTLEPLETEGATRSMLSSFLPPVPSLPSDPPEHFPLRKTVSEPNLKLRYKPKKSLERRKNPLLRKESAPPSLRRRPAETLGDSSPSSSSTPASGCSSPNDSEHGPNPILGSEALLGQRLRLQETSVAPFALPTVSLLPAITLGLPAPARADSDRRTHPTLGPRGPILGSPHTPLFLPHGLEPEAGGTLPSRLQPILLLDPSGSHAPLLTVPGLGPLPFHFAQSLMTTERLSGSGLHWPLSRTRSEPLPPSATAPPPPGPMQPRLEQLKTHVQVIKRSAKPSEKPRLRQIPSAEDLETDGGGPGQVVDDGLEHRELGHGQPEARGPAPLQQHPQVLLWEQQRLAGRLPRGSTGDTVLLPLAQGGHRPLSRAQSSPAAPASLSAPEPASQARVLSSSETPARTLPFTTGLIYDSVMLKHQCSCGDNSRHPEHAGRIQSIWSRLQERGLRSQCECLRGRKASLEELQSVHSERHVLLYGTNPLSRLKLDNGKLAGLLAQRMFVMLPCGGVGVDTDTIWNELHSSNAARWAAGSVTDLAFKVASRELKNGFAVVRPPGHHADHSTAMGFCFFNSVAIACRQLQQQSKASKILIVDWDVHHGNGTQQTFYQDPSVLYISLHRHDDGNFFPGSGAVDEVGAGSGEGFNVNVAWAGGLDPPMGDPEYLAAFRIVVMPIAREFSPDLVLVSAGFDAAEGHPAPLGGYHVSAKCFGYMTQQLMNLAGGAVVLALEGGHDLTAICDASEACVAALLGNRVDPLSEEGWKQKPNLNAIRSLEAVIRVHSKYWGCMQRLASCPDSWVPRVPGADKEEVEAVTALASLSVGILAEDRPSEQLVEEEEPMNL

[7] = target: Cytochrome P450 3A4 (Homo sapiens, UniProt P08684); test: Inhibition of CYP3A4 in human liver microsomes in presence of NADPH by LC-MS/MS method; assay type: ADME, Microsome
Chain of Cytochrome P450 3A4 (P08684 whole entry): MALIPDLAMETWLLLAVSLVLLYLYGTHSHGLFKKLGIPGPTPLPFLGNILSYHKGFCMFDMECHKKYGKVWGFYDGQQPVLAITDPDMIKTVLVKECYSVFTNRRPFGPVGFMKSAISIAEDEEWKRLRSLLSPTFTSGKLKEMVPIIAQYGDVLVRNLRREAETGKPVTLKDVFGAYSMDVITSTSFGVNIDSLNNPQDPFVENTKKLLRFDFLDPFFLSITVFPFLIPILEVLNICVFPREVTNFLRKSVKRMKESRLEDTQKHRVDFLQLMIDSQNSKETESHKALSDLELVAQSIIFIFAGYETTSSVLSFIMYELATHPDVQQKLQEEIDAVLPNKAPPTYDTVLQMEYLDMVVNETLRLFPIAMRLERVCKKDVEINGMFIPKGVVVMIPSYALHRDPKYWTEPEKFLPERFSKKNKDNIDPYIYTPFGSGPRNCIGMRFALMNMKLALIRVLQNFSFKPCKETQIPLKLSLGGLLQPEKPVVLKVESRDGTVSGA

IC50 [1] [µM]	IC50 [2] [µM]	IC50 [3] [µM]	IC50 [4] [µM]	IC50 [5] [µM]	IC50 [6] [µM]	IC50 [7] [µM]	SMILES
14	> 30	0.25	29	0.23	> 30	14	CN1C[C@H](C(=O)Nc2ccc(Cl)cc2)[C@@H](c2ccc(/C=C/C(=O)Nc3ccccc3N)cc2)C1
20	> 30	0.27	23	0.2	> 30	21	CN1C[C@@H](C(=O)Nc2ccc(Cl)cc2)[C@H](c2ccc(/C=C/C(=O)Nc3ccccc3N)cc2)C1
> 30	> 30	0.22	13	0.23	> 30	4	CN1C[C@H](C(=O)Nc2ccc(Cl)cc2)[C@@H](c2ccc(/C=C/C(=O)Nc3ccccc3N)cc2F)C1 (racemic)
